In ChEMBL document CHEMBL2375321, “Discovery of 3,3'-diindolylmethanes as potent antileishmanial agents” (Eur J Med Chem, 2013):
Values after ≈ are worked out from the molar mass of the structure shown. Active and inactive are the calls of the source. Unless noted, the rule behind the calls is not given here.

Assays:
[1] = tested on: Mycobacterium intracellulare; assay: Antibacterial activity against Mycobacterium intracellulare ATCC 23068 by alamar blue assay; assay type: functional, organism-based
Staphylococcus aureus [2] = assay: Antibacterial activity against methicillin-resistant Staphylococcus aureus ATCC 33591 by CLSI method; assay type: functional, organism-based
Staphylococcus aureus [3] = assay: Antibacterial activity against Staphylococcus aureus ATCC 29213 by CLSI method; assay type: functional, organism-based
Vero = assay: Cytotoxicity against african green monkey Vero cells up to 4.6 ug/ml after 48 hrs by neutral red assay; assay type: cell-based; conditions: chlorocebus sabaeus
Leishmania donovani [4] = assay: Antileishmanial activity against axenic amastigote of Leishmania donovani after 72 hrs by alamar blue assay; assay type: functional, organism-based
Leishmania donovani [5] = assay: Antileishmanial activity against promastigote of Leishmania donovani after 72 hrs by alamar blue assay; assay type: functional, organism-based
Cryptococcus neoformans = assay: Antifungal activity against Cryptococcus neoformans ATCC 90113 by CLSI method; assay type: functional, organism-based
Candida albicans = assay: Antifungal activity against Candida albicans ATCC 90028 by CLSI method; assay type: functional, organism-based
Aspergillus fumigatus = assay: Antifungal activity against Aspergillus fumigatus ATCC 204305 by CLSI method; assay type: functional, organism-based
[6] = Staphylococcus aureus, ATCC 33591, read-out: IC50
[7] = Leishmania donovani, 72 h, read-out: IC50
[8] = Mycobacterium intracellulare, ATCC 23068
[9] = Mycobacterium intracellulare, ATCC 23068, read-out: IC50

`COc1ccc2[nH]cc(C(c3c(Cl)cccc3Cl)c3c[nH]c4ccc(OC)cc34)c2c1` was tested, and the IC50 [1] was “Not Active”, the MBC [1] was “inactive” and the MIC [1] was “inactive”. The MBC (Staphylococcus aureus [2]) was “inactive”, the MIC (Staphylococcus aureus [2]) was “inactive” and the IC50 (Staphylococcus aureus [2]; [6]) was 17.2 µM. For the same compound, the IC50 (Staphylococcus aureus [3]) was 7.51 µM, the MBC (Staphylococcus aureus [3]) was “inactive” and the MIC (Staphylococcus aureus [3]) was “inactive”. For the same compound, the Activity (Vero) was “Non-toxic”, the IC50 (Leishmania donovani [4]) was “Not Active” and the IC90 (Leishmania donovani [4]) was “inactive”. The IC50 (Leishmania donovani [5]) was “Not Active” and the IC90 (Leishmania donovani [5]) was “inactive”.
In the case of `O=[N+]([O-])c1ccc(C(c2c[nH]c3ccc(I)cc23)c2c[nH]c3ccc(I)cc23)o1`, the IC50 [1] is reported as “Not Active”, the MBC [1] is reported as “inactive” and the MIC [1] is reported as “inactive”. The MBC (Staphylococcus aureus [2]) was “inactive”, the MIC (Staphylococcus aureus [2]; Staphylococcus aureus, ATCC 33591) was 32.8 µM (≈ 20 µg/mL) and the IC50 (Staphylococcus aureus [2]; [6]) was 11.3 µM. The IC50 (Staphylococcus aureus [3]) was 7.52 µM, the MBC (Staphylococcus aureus [3]) was 16.4 µM (≈ 9.99 µg/mL) and the MIC (Staphylococcus aureus [3]) was 16.4 µM (≈ 9.99 µg/mL). The Activity (Vero) was “Non-toxic”, the IC90 (Leishmania donovani [4]; Leishmania donovani, 72 h) was 28.9 µM and the IC50 (Leishmania donovani [4]; [7]) was 25.3 µM. For the same compound, the IC90 (Leishmania donovani [5]; Leishmania donovani, 72 h) was 6.22 µM and the IC50 (Leishmania donovani [5]; [7]) was 3.02 µM.
With `Ic1ccc2[nH]cc(C(c3c4ccccc4cc4ccccc34)c3c[nH]c4ccc(I)cc34)c2c1` the Activity (Vero) was “Non-toxic”, the IC50 (Leishmania donovani [4]) was “Not Active” and the IC90 (Leishmania donovani [4]) was “inactive”. For the same compound, the IC50 (Leishmania donovani [5]) was “Not Active” and the IC90 (Leishmania donovani [5]) was “inactive”.
`Brc1ccc(C(c2c[nH]c3ccc(I)cc23)c2c[nH]c3ccc(I)cc23)cc1` was tested, and the IC50 (Cryptococcus neoformans) was 5.58 µM, the MFC (Cryptococcus neoformans) was 30.7 µM (≈ 20 µg/mL) and the MIC (Cryptococcus neoformans) was 30.7 µM (≈ 20 µg/mL). For the same compound, the Activity (Candida albicans) was “inactive”, the Activity (Aspergillus fumigatus) was “inactive” and the Activity (Vero) was “Non-toxic”. For the same compound, the IC90 (Leishmania donovani [4]; Leishmania donovani, 72 h) was 46.6 µM, the IC50 (Leishmania donovani [4]; [7]) was 13.1 µM and the IC90 (Leishmania donovani [5]; Leishmania donovani, 72 h) was 8.47 µM. For the same compound, the IC50 (Leishmania donovani [5]; [7]) was 4.49 µM.
With `Fc1ccc(C(c2c[nH]c3ccc(I)cc23)c2c[nH]c3ccc(I)cc23)cc1Br` the IC50 (Cryptococcus neoformans) was 16.8 µM, the MFC (Cryptococcus neoformans) was 29.9 µM (≈ 20 µg/mL) and the MIC (Cryptococcus neoformans) was 29.9 µM (≈ 20 µg/mL). The Activity (Candida albicans) was “inactive”, the Activity (Aspergillus fumigatus) was “inactive” and the Activity (Vero) was “Non-toxic”. For the same compound, the IC90 (Leishmania donovani [4]; Leishmania donovani, 72 h) was 31.4 µM, the IC50 (Leishmania donovani [4]; [7]) was 18.2 µM and the IC90 (Leishmania donovani [5]; Leishmania donovani, 72 h) was 18.2 µM. It also gave an IC50 (Leishmania donovani [5]; [7]) of 9.84 µM.
In the case of `COc1ccc2[nH]cc(C(c3ccc(O)cc3)c3c[nH]c4ccc(OC)cc34)c2c1`, the Activity (Vero) is reported as “Non-toxic”, the IC90 (Leishmania donovani [4]; Leishmania donovani, 72 h) is reported as 76.3 µM and the IC50 (Leishmania donovani [4]; [7]) is reported as 42.9 µM. It also gave an IC90 (Leishmania donovani [5]; Leishmania donovani, 72 h) of 91 µM and an IC50 (Leishmania donovani [5]; [7]) of 81.1 µM.
In the case of `O=[N+]([O-])c1ccc(C(c2c[nH]c3ccc(I)cc23)c2c[nH]c3ccc(I)cc23)cc1`, the Activity (Vero) is reported as “Non-toxic”, the IC90 (Leishmania donovani [4]; Leishmania donovani, 72 h) is reported as 38.4 µM and the IC50 (Leishmania donovani [4]; [7]) is reported as 8.37 µM. The IC90 (Leishmania donovani [5]; Leishmania donovani, 72 h) was 10.2 µM and the IC50 (Leishmania donovani [5]; [7]) was 7.88 µM.
With `COc1ccc2[nH]cc(C(c3ccc(F)c(Br)c3)c3c[nH]c4ccc(OC)cc34)c2c1` the MBC [1] was “inactive”, the MIC [1, 8] was 41.8 µM (≈ 20 µg/mL) and the IC50 [1, 9] was 39.6 µM. The MBC (Staphylococcus aureus [2]) was “inactive”, the MIC (Staphylococcus aureus [2]) was “inactive” and the IC50 (Staphylococcus aureus [2]; [6]) was 4.67 µM. For the same compound, the IC50 (Staphylococcus aureus [3]) was 3.45 µM, the MBC (Staphylococcus aureus [3]) was “inactive” and the MIC (Staphylococcus aureus [3]) was 10.5 µM (≈ 5.03 µg/mL). The Activity (Vero) was “Non-toxic”, the IC90 (Leishmania donovani [4]; Leishmania donovani, 72 h) was 66.8 µM and the IC50 (Leishmania donovani [4]; [7]) was 47.6 µM. For the same compound, the IC90 (Leishmania donovani [5]; Leishmania donovani, 72 h) was 46.6 µM and the IC50 (Leishmania donovani [5]; [7]) was 15.8 µM.
`COc1ccc2[nH]cc(C(c3ccc(O)c(OC)c3)c3c[nH]c4ccc(OC)cc34)c2c1` was tested, and the Activity (Vero) was “Non-toxic”, the IC50 (Leishmania donovani [4]) was “Not Active” and the IC90 (Leishmania donovani [4]) was “inactive”. The IC50 (Leishmania donovani [5]) was “Not Active” and the IC90 (Leishmania donovani [5]) was “inactive”.
For `COc1ccc2[nH]cc(C(c3cccc4ccccc34)c3c[nH]c4ccc(OC)cc34)c2c1`, the IC50 [1] was “Not Active”, the MBC [1] was “inactive” and the MIC [1] was “inactive”. For the same compound, the IC50 (Staphylococcus aureus [2]) was “Not Active”, the MBC (Staphylococcus aureus [2]) was “inactive” and the MIC (Staphylococcus aureus [2]) was “inactive”. For the same compound, the IC50 (Staphylococcus aureus [3]) was 39.7 µM, the MBC (Staphylococcus aureus [3]) was “inactive” and the MIC (Staphylococcus aureus [3]) was “inactive”. For the same compound, the Activity (Vero) was “Non-toxic”, the IC90 (Leishmania donovani [4]) was “inactive” and the IC50 (Leishmania donovani [4]; [7]) was 33.2 µM. The IC90 (Leishmania donovani [5]; Leishmania donovani, 72 h) was 82.9 µM and the IC50 (Leishmania donovani [5]; [7]) was 66.5 µM.
In the case of `COc1cc(C(c2c[nH]c3ccccc23)c2c[nH]c3ccccc23)ccc1O`, the Activity (Vero) is reported as “Non-toxic”, the IC90 (Leishmania donovani [4]) is reported as “inactive” and the IC50 (Leishmania donovani [4]; [7]) is reported as 75 µM. It also gave an IC90 (Leishmania donovani [5]; Leishmania donovani, 72 h) of 98.9 µM and an IC50 (Leishmania donovani [5]; [7]) of 86 µM.
With `COc1ccc2[nH]cc(C(c3ccc([N+](=O)[O-])o3)c3c[nH]c4ccc(OC)cc34)c2c1` the Activity (Vero) was “Non-toxic”, the IC50 (Leishmania donovani [4]) was “Not Active” and the IC90 (Leishmania donovani [4]) was “inactive”. It also gave an IC90 (Leishmania donovani [5]; Leishmania donovani, 72 h) of 60 µM and an IC50 (Leishmania donovani [5]; [7]) of 37.3 µM.
In the case of `O=C(O)c1cn(C2CC2)c2cc(N3CCNCC3)c(F)cc2c1=O` [CIPROFLOXACIN], the MBC [1, 8] is reported as 3.02 µM (≈ 1 µg/mL) and the IC50 [1, 9] is reported as 1 µM.
With `C[C@@H]1[C@H](O)[C@@H](C)/C=C/C=C/C=C/C=C/C=C/C=C/C=C/[C@H](O[C@@H]2O[C@H](C)[C@@H](O)[C@H](N)[C@@H]2O)C[C@@H]2O[C@](O)(C[C@@H](O)C[C@@H](O)[C@H](O)CC[C@@H](O)C[C@@H](O)CC(=O)O[C@H]1C)C[C@H](O)[C@H]2C(=O)O` [AMPHOTERICIN B] the IC50 (Cryptococcus neoformans) was 0.85 µM, the MFC (Cryptococcus neoformans) was 1.35 µM (≈ 1.25 µg/mL) and the MIC (Cryptococcus neoformans) was 1.35 µM (≈ 1.25 µg/mL). The Activity (Candida albicans) was “inactive”, the Activity (Aspergillus fumigatus) was “inactive” and the IC90 (Leishmania donovani [4]; Leishmania donovani, 72 h) was […]. It also gave an IC90 (Leishmania donovani [5]; Leishmania donovani, 72 h) of 0.35 µM.
